Test results from ChEMBL document CHEMBL5108078, “Design and Synthesis of Phenyl Sulfide-Based Cationic Amphiphiles as Membrane-Targeting Antimicrobial Agents against Gram-Positive Pathogens” (J Med Chem, 2022).
≈ marks a conversion by molar mass, not a printed value.

What was measured:
[1] = tested on: Staphylococcus aureus; assay: Antibacterial activity against methicillin resistant Staphylococcus aureus NCTC10442 assessed as inhibition of bacterial growth incubated for 24 hrs by microbroth dilution method; format: functional
[2] = Hemolytic activity in rabbit RBC incubated for 1 hr by microplate reader analysis; format: toxicity, cell-based, Oryctolagus cuniculus, Erythrocyte; details: rabbit red blood cells (erythrocytes)
[3] = tested on: Staphylococcus aureus; assay: Antibacterial activity against methicillin resistant Staphylococcus aureus N315 assessed as inhibition of bacterial growth incubated for 24 hrs by microbroth dilution method; format: functional
[4] = tested on: Staphylococcus aureus; assay: Antibacterial activity against Staphylococcus aureus ATCC 29213 assessed as inhibition of bacterial growth incubated for 24 hrs by microbroth dilution method; format: functional
[5] = tested on: Staphylococcus aureus; assay: Antibacterial activity against Staphylococcus aureus ATCC 15981 assessed as inhibition of bacterial growth incubated for 24 hrs by microbroth dilution method; format: functional
[6] = tested on: Bacillus subtilis; assay: Antibacterial activity against Bacillus subtilis CMCC63501 assessed as inhibition of bacterial growth incubated for 24 hrs by microbroth dilution method; format: functional
[7] = tested on: Staphylococcus epidermidis; assay: Antibacterial activity against Staphylococcus epidermidis CMCC26069 assessed as inhibition of bacterial growth incubated for 24 hrs by microbroth dilution method; format: functional
[8] = tested on: Enterococcus faecalis; assay: Antibacterial activity against Enterococcus faecalis ATCC 29212 assessed as inhibition of bacterial growth incubated for 24 hrs by microbroth dilution method; format: functional
[9] = tested on: Staphylococcus epidermidis; assay: Antibacterial activity against Staphylococcus epidermidis ATCC 12228 assessed as inhibition of bacterial growth incubated for 24 hrs by microbroth dilution method; format: functional
[10] = tested on: Staphylococcus aureus; assay: Induction of resistant development in Staphylococcus aureus ATCC 29213 assessed as fold increase in MIC at 0.5 MIC after 12 passages by resistant development assay; format: functional

| Structure (SMILES) | MIC [1] | HC50 at 1 h [2] | MIC [3] | MIC [4] | MIC [5] | MIC [6] | MIC [7] | MIC [8] | MIC [9] | fold change (FC) [10] |
| --- | --- | --- | --- | --- | --- | --- | --- | --- | --- | --- |
| CCCN(CCC)CCCCOc1ccc(C(C)(C)CC(C)(C)C)cc1Sc1cc(C(C)(C)CC(C)(C)C)ccc1OCCCCN(CCC)CCC | > 50 µg/mL | > 200 µg/mL | > 50 µg/mL | > 50 µg/mL |  |  |  |  |  |  |
| CCCCN(CCCC)CCCCOc1ccc(C(C)(C)CC(C)(C)C)cc1Sc1cc(C(C)(C)CC(C)(C)C)ccc1OCCCCN(CCCC)CCCC | > 50 µg/mL | > 200 µg/mL | > 50 µg/mL | > 50 µg/mL |  |  |  |  |  |  |
| CC(C)(C)CC(C)(C)c1ccc(O)c(Sc2cc(C(C)(C)CC(C)(C)C)ccc2O)c1 | > 50 µg/mL | > 200 µg/mL | > 50 µg/mL | > 50 µg/mL |  |  |  |  |  |  |
| CC(C)(C)CC(C)(C)c1ccc(OCC(=O)N[C@@H](CCCNC(=N)N)C(=O)N[C@@H](CCCNC(=N)N)C(N)=O)c(Sc2cc(C(C)(C)CC(C)(C)C)ccc2OCC(=O)N[C@@H](CCCNC(=N)N)C(=O)N[C@@H](CCCNC(=N)N)C(N)=O)c1 | 6.25 µg/mL (≈ 5.29 µM) | > 200 µg/mL | 6.25 µg/mL (≈ 5.29 µM) | 6.25 µg/mL (≈ 5.29 µM) |  |  |  |  |  |  |
| Cc1cc(Sc2cc(C)cc(C(C)(C)C)c2O)c(O)c(C(C)(C)C)c1 | > 50 µg/mL | > 200 µg/mL | > 50 µg/mL | > 50 µg/mL |  |  |  |  |  |  |
| Cc1cc(Sc2cc(C)cc(C(C)(C)C)c2OCC(=O)N[C@@H](CCCNC(=N)N)C(N)=O)c(OCC(=O)N[C@@H](CCCNC(=N)N)C(N)=O)c(C(C)(C)C)c1 | 12.5 µg/mL (≈ 15.9 µM) | > 200 µg/mL | 12.5 µg/mL (≈ 15.9 µM) | 25 µg/mL (≈ 31.8 µM) |  |  |  |  |  |  |
| CCCCNCCCCOc1ccc(C(C)(C)CC(C)(C)C)cc1Sc1cc(C(C)(C)CC(C)(C)C)ccc1OCCCCNCCCC | 6.25 µg/mL (≈ 8.96 µM) | 41.5 µg/mL | 6.25 µg/mL (≈ 8.96 µM) | 6.25 µg/mL (≈ 8.96 µM) |  |  |  |  |  |  |
| CC(C)(C)CC(C)(C)c1ccc(OCCCCBr)c(Sc2cc(C(C)(C)CC(C)(C)C)ccc2OCCCCBr)c1 | > 50 µg/mL | > 200 µg/mL | > 50 µg/mL | > 50 µg/mL |  |  |  |  |  |  |
| COC(=O)[C@H](CCCNC(=N)N)NC(=O)COc1c(Sc2cc(C)cc(C(C)(C)C)c2OCC(=O)N[C@@H](CCCNC(=N)N)C(=O)OC)cc(C)cc1C(C)(C)C | 3.12 µg/mL (≈ 3.83 µM) | > 200 µg/mL | 1.56 µg/mL (≈ 1.91 µM) | 3.12 µg/mL (≈ 3.83 µM) | 1.56 µg/mL (≈ 1.91 µM) | 1.56 µg/mL (≈ 1.91 µM) | 0.78 µg/mL (≈ 0.957 µM) | 12.5 µg/mL (≈ 15.3 µM) | 0.78 µg/mL (≈ 0.957 µM) |  |
| CC(C)(C)CC(C)(C)c1ccc(O)c(Sc2cc(C(C)(C)CC(C)(C)C)ccc2OCC(=O)N[C@@H](CCCNC(=N)N)C(N)=O)c1 | 12.5 µg/mL (≈ 19.1 µM) | > 200 µg/mL | 12.5 µg/mL (≈ 19.1 µM) | 12.5 µg/mL (≈ 19.1 µM) |  |  |  |  |  |  |
| CCCCCCNCCCCOc1ccc(C(C)(C)CC(C)(C)C)cc1Sc1cc(C(C)(C)CC(C)(C)C)ccc1OCCCCNCCCCCC | > 50 µg/mL | > 200 µg/mL | > 50 µg/mL | > 50 µg/mL |  |  |  |  |  |  |
| COC(=O)[C@H](CCCNC(=N)N)NC(=O)COc1ccc(C(C)(C)CC(C)(C)C)cc1Sc1cc(C(C)(C)CC(C)(C)C)ccc1O | 1.56 µg/mL (≈ 2.33 µM) | 130 µg/mL | 3.12 µg/mL (≈ 4.66 µM) | 12.5 µg/mL (≈ 18.6 µM) |  |  |  |  |  |  |
| COC(=O)[C@H](CCCNC(=N)N)NC(=O)[C@H](CCCNC(=N)N)NC(=O)COc1ccc(C(C)(C)CC(C)(C)C)cc1Sc1cc(C(C)(C)CC(C)(C)C)ccc1OCC(=O)N[C@@H](CCCNC(=N)N)C(=O)N[C@@H](CCCNC(=N)N)C(=O)OC | 3.12 µg/mL (≈ 2.58 µM) | > 200 µg/mL | 1.56 µg/mL (≈ 1.29 µM) | 1.56 µg/mL (≈ 1.29 µM) | 3.12 µg/mL (≈ 2.58 µM) | 1.56 µg/mL (≈ 1.29 µM) | 1.56 µg/mL (≈ 1.29 µM) | 3.12 µg/mL (≈ 2.58 µM) | 1.56 µg/mL (≈ 1.29 µM) |  |
| CC(C)(C)CC(C)(C)c1ccc(OCCCCN2CCCCC2)c(Sc2cc(C(C)(C)CC(C)(C)C)ccc2OCCCCN2CCCCC2)c1 | 25 µg/mL (≈ 34.7 µM) | > 200 µg/mL | 12.5 µg/mL (≈ 17.3 µM) | 12.5 µg/mL (≈ 17.3 µM) |  |  |  |  |  |  |
| Oc1ccc(Cl)cc1Sc1cc(Cl)ccc1O [FENTICLOR] | > 50 µg/mL | > 200 µg/mL | > 50 µg/mL | > 50 µg/mL |  |  |  |  |  |  |
| COC(=O)[C@H](CCCNC(=N)N)NC(=O)[C@H](CCCNC(=N)N)NC(=O)[C@H](CCCNC(=N)N)NC(=O)COc1ccc(C(C)(C)CC(C)(C)C)cc1Sc1cc(C(C)(C)CC(C)(C)C)ccc1OCC(=O)N[C@@H](CCCNC(=N)N)C(=O)N[C@@H](CCCNC(=N)N)C(=O)N[C@@H](CCCNC(=N)N)C(=O)OC | 3.12 µg/mL (≈ 2.05 µM) | > 200 µg/mL | 6.25 µg/mL (≈ 4.1 µM) | 6.25 µg/mL (≈ 4.1 µM) |  |  |  |  |  |  |
| CCOC(=O)COc1ccc(C(C)(C)CC(C)(C)C)cc1Sc1cc(C(C)(C)CC(C)(C)C)ccc1O | > 50 µg/mL | > 200 µg/mL | > 50 µg/mL | > 50 µg/mL |  |  |  |  |  |  |
| COC(=O)[C@H](CCCCN)NC(=O)COc1ccc(C(C)(C)CC(C)(C)C)cc1Sc1cc(C(C)(C)CC(C)(C)C)ccc1OCC(=O)N[C@@H](CCCCN)C(=O)OC | 3.12 µg/mL (≈ 3.71 µM) | 162 µg/mL | 1.56 µg/mL (≈ 1.85 µM) | 3.12 µg/mL (≈ 3.71 µM) |  |  |  |  |  |  |
| COC(=O)[C@H](CCCNC(=N)N)NC(=O)COc1ccc(Cl)cc1Sc1cc(Cl)ccc1OCC(=O)N[C@@H](CCCNC(=N)N)C(=O)OC | 12.5 µg/mL (≈ 16.8 µM) | > 200 µg/mL | 12.5 µg/mL (≈ 16.8 µM) | 25 µg/mL (≈ 33.6 µM) |  |  |  |  |  |  |
| CCN(CC)CCCCOc1ccc(C(C)(C)CC(C)(C)C)cc1Sc1cc(C(C)(C)CC(C)(C)C)ccc1OCCCCN(CC)CC | 3.12 µg/mL (≈ 4.48 µM) | 67.9 µg/mL | 1.56 µg/mL (≈ 2.24 µM) | 3.12 µg/mL (≈ 4.48 µM) |  |  |  |  |  |  |
| CC(C)(C)CC(C)(C)c1ccc(OCCCCNC(=N)N)c(Sc2cc(C(C)(C)CC(C)(C)C)ccc2OCCCCNC(=N)N)c1 | 3.12 µg/mL (≈ 4.67 µM) | > 200 µg/mL | 3.12 µg/mL (≈ 4.67 µM) | 3.12 µg/mL (≈ 4.67 µM) |  |  |  |  |  |  |
| CCNCCCCOc1ccc(C(C)(C)CC(C)(C)C)cc1Sc1cc(C(C)(C)CC(C)(C)C)ccc1OCCCCNCC | 1.56 µg/mL (≈ 2.43 µM) | 30.8 µg/mL | 1.56 µg/mL (≈ 2.43 µM) | 1.56 µg/mL (≈ 2.43 µM) |  |  |  |  |  |  |
| CCn1cc(C(=O)O)c(=O)c2cc(F)c(N3CCNCC3)cc21 |  |  |  |  |  |  |  |  |  | 32 |
| CN1CCN(CCCCOc2ccc(C(C)(C)CC(C)(C)C)cc2Sc2cc(C(C)(C)CC(C)(C)C)ccc2OCCCCN2CCN(C)CC2)CC1 | 12.5 µg/mL (≈ 16.6 µM) | > 200 µg/mL | 12.5 µg/mL (≈ 16.6 µM) | 12.5 µg/mL (≈ 16.6 µM) |  |  |  |  |  |  |
| CC(C)(C)CC(C)(C)c1ccc(OCC(=O)N[C@@H](CCCNC(=N)N)C(N)=O)c(Sc2cc(C(C)(C)CC(C)(C)C)ccc2OCC(=O)N[C@@H](CCCNC(=N)N)C(N)=O)c1 | 3.12 µg/mL (≈ 3.6 µM) | 183 µg/mL | 1.56 µg/mL (≈ 1.79 µM) | 3.12 µg/mL (≈ 3.6 µM) |  |  |  |  |  |  |
| CC(C)(C)CC(C)(C)c1ccc(OCCCCN2CCSCC2)c(Sc2cc(C(C)(C)CC(C)(C)C)ccc2OCCCCN2CCSCC2)c1 | > 50 µg/mL | > 200 µg/mL | > 50 µg/mL | > 50 µg/mL |  |  |  |  |  |  |
| CN(C)CCCCOc1ccc(C(C)(C)CC(C)(C)C)cc1Sc1cc(C(C)(C)CC(C)(C)C)ccc1OCCCCN(C)C | 1.56 µg/mL (≈ 2.43 µM) | 23.2 µg/mL | 1.56 µg/mL (≈ 2.43 µM) | 1.56 µg/mL (≈ 2.43 µM) |  |  |  |  |  |  |
| COC(=O)[C@H](CCCNC(=N)N)NC(=O)[C@H](CCCNC(=N)N)NC(=O)COc1c(Sc2cc(C)cc(C(C)(C)C)c2OCC(=O)N[C@@H](CCCNC(=N)N)C(=O)N[C@@H](CCCNC(=N)N)C(=O)OC)cc(C)cc1C(C)(C)C | 1.56 µg/mL (≈ 1.38 µM) | > 200 µg/mL | 1.56 µg/mL (≈ 1.38 µM) | 1.56 µg/mL (≈ 1.38 µM) | 1.56 µg/mL (≈ 1.38 µM) | 0.78 µg/mL (≈ 0.692 µM) | 0.78 µg/mL (≈ 0.692 µM) | 25 µg/mL (≈ 22.2 µM) | 0.78 µg/mL (≈ 0.692 µM) |  |
| CCOC(=O)COc1ccc(C(C)(C)CC(C)(C)C)cc1Sc1cc(C(C)(C)CC(C)(C)C)ccc1OCC(=O)OCC | > 50 µg/mL | > 200 µg/mL | > 50 µg/mL | > 50 µg/mL |  |  |  |  |  |  |
